Laboratory results: patent publication US20260140098A1, “METHOD FOR TREATING PLASMA SAMPLE CONTAINING (7aS,2'S)-2-OXO-CLOPIDOGREL AND METHOD FOR DETERMINING THE SAME” (CHENGDU SHIBEIKANG BIOMEDICAL TECHNOLOGY CO., LTD., priority 2021, published 2026)
Like-named read-outs stand apart in the source and are kept apart here.

Assay: Stability of (7aS,2′S)-2-oxo-clopidogrel in plasma, screening of TCEP dosage (Example 4)
Type: in vitro ADME
Conditions: for recovery at 0 min, 0.1 ng/mL / recovery at 30 min, 0.1 ng/mL / recovery at 60 min, 0.1 ng/mL / recovery at 120 min, 0.1 ng/mL: theoretical 0.1 ng/mL; for recovery at 0 min, 0.1 ng/mL / recovery at 30 min, 0.1 ng/mL / recovery at 60 min, 0.1 ng/mL / recovery at 120 min, 0.1 ng/mL / recovery at 0 min, 12 ng/mL / recovery at 30 min, 12 ng/mL / recovery at 60 min, 12 ng/mL / recovery at 120 min, 12 ng/mL: read-out: Recovery rate; for recovery at 0 min, 12 ng/mL / recovery at 30 min, 12 ng/mL / recovery at 60 min, 12 ng/mL / recovery at 120 min, 12 ng/mL: theoretical 12.0 ng/mL
Protocol: S2. Plasma sample pre-treatment: taking 100 μl of the plasma, adding 5 μl of an internal standard working solution and 300 μl of acetonitrile respectively; after vortex mixing, centrifuging at 2-8° C. and 10,000 r/min for 10 min, and collecting the supernatant for later use.
S3. LC-MS/MS analysis: injecting 10 μl of the supernatant prepared from step S2 for determination, where the liquid chromatography conditions are: • the chromatographic column is Kinetex® 1.7 μm C18 100 A 100×2.1 mm; the column temperature is 40° C.; the mobile phase is acetonitrile-0.2% aqueous formic acid solution with a flow rate of 0.2 ml/min; and a gradient elution is carried out as specified in the table below:
ESI ion source, positive ion detection in multiple reaction monitoring mode (MRM); the quantitatively analyzed ions (7aS,2′S)-2-oxo-clopidogrel: m/z 338.100→155.000, IS: m/z 341.100→158.000, a capillary voltage of 4.0 KV, a cone voltage of 25 V, a desolvation gas temperature of 400° C. and a source temperature of 150° C. The optimal collision energy is 20 eV.
Blank plasma was taken and TCEP was added to prepare plasma containing TCEP at different concentrations (10, 50, 100 mg/ml). Subsequently, standard series solution of (7aS,2′S)-2-oxo-clopidogrel was added separately to prepare quality control samples with two concentrations of (7aS,2′S)-2-oxo-clopidogrel (0.1 and 12.0 ng/ml), 3 samples for each concentration. They were placed at room temperature and on ice, respectively, and the plasma samples at different placing time points were taken to examine the stability by pre-treating the plasma samples according to the method of S2 of Example 1, followed by LC/MS/MS determination according to the method of S3.

[1] = plasma containing TCEP 10 mg/ml, TCEP 10 mg/ml, on ice
[2] = plasma containing TCEP 10 mg/ml, TCEP 10 mg/ml, room temperature
[3] = plasma without TCEP, No TCEP, on ice
[4] = plasma without TCEP, No TCEP, room temperature
[5] = plasma, TCEP 50 mg/ml, room temperature
[6] = plasma, TCEP 100 mg/ml, room temperature

Compound: COC(=O)[C@H](c1ccccc1Cl)N1CC[C@@H]2SC(=O)C=C2C1 [(7aS,2′S)-2-oxo-clopidogrel, methyl(S)-2-(2-chlorophenyl)-2-((S)-2-oxo-2,6,7,7a-tetrahydrothieno[3,2-c]pyridin-5 (4H)-yl)acetate]
- Stability in plasma (in words) (on ice compared with room temperature): more stable when placed on ice than at room temperature
- recovery at 0 min, 0.1 ng/mL [1]: 96.5%
- recovery at 30 min, 0.1 ng/mL [1]: 94.2%
- recovery at 60 min, 0.1 ng/mL [1]: 86.3%
- recovery at 120 min, 0.1 ng/mL [1]: 78.2%
- recovery at 0 min, 0.1 ng/mL [2]: 96.5%
- recovery at 30 min, 0.1 ng/mL [2]: 95.2%
- recovery at 60 min, 0.1 ng/mL [2]: 83.3%
- recovery at 120 min, 0.1 ng/mL [2]: 72.9%
- recovery at 0 min, 12 ng/mL [1]: 102%
- recovery at 30 min, 12 ng/mL [1]: 99.2%
- recovery at 60 min, 12 ng/mL [1]: 88.8%
- recovery at 120 min, 12 ng/mL [1]: 82.7%
- recovery at 0 min, 12 ng/mL [2]: 102%
- recovery at 30 min, 12 ng/mL [2]: 97.5%
- recovery at 60 min, 12 ng/mL [2]: 86.7%
- recovery at 120 min, 12 ng/mL [2]: 78.8%
- recovery at 0 min, 0.1 ng/mL (plasma containing TCEP 50 mg/ml, TCEP 50 mg/ml, room temperature): 96.5%
- Stability in plasma (in words) (plasma samples without TCEP): degraded fast
- recovery at 0 min, 0.1 ng/mL [3]: 96.5%
- recovery at 30 min, 0.1 ng/mL [3]: 84.2%
- recovery at 60 min, 0.1 ng/mL [3]: 76.3%
- recovery at 120 min, 0.1 ng/mL [3]: 62.2%
- recovery at 30 min, 0.1 ng/mL [4]: 78.2%
- recovery at 60 min, 0.1 ng/mL [4]: 63.3%
- recovery at 120 min, 0.1 ng/mL [4]: 52.9%
- recovery at 0 min, 12 ng/mL [3]: 102%
- recovery at 30 min, 12 ng/mL [3]: 85.8%
- recovery at 60 min, 12 ng/mL [3]: 80.4%
- recovery at 120 min, 12 ng/mL [3]: 60.3%
- recovery at 0 min, 12 ng/mL [4]: 102%
- recovery at 30 min, 12 ng/mL [4]: 78.8%
- recovery at 60 min, 12 ng/mL [4]: 69.8%
- recovery at 120 min, 12 ng/mL [4]: 54.8%
- recovery at 0 min, 0.1 ng/mL (plasma, No TCEP, room temperature): 96.5%
- recovery at 0 min, 0.1 ng/mL (plasma, TCEP 50 mg/ml, on ice): 96.5%
- recovery at 30 min, 0.1 ng/mL (plasma, TCEP 50 mg/ml, on ice): 95.6%
- recovery at 60 min, 0.1 ng/mL (plasma, TCEP 50 mg/ml, on ice): 93.2%
- recovery at 120 min, 0.1 ng/mL (plasma, TCEP 50 mg/ml, on ice): 91.1%
- recovery at 30 min, 0.1 ng/mL [5]: 93.5%
- recovery at 60 min, 0.1 ng/mL [5]: 91.4%
- recovery at 120 min, 0.1 ng/mL [5]: 89.5%
- recovery at 0 min, 12 ng/mL (plasma, TCEP 50 mg/ml, on ice): 102%
- recovery at 30 min, 12 ng/mL (plasma, TCEP 50 mg/ml, on ice): 102%
- recovery at 60 min, 12 ng/mL (plasma, TCEP 50 mg/ml, on ice): 99.2%
- recovery at 120 min, 12 ng/mL (plasma, TCEP 50 mg/ml, on ice): 95%
- recovery at 0 min, 12 ng/mL [5]: 102%
- recovery at 30 min, 12 ng/mL [5]: 101%
- recovery at 60 min, 12 ng/mL [5]: 99.2%
- recovery at 120 min, 12 ng/mL [5]: 88.3%
- recovery at 0 min, 0.1 ng/mL (plasma, TCEP 100 mg/ml, on ice): 96.5%
- recovery at 30 min, 0.1 ng/mL (plasma, TCEP 100 mg/ml, on ice): 95.8%
- recovery at 60 min, 0.1 ng/mL (plasma, TCEP 100 mg/ml, on ice): 94.2%
- recovery at 120 min, 0.1 ng/mL (plasma, TCEP 100 mg/ml, on ice): 95.1%
- recovery at 0 min, 0.1 ng/mL [6]: 96.5%
- recovery at 30 min, 0.1 ng/mL [6]: 95.5%
- recovery at 60 min, 0.1 ng/mL [6]: 93.4%
- recovery at 120 min, 0.1 ng/mL [6]: 91.5%
- recovery at 0 min, 12 ng/mL (plasma, TCEP 100 mg/ml, on ice): 102%
- recovery at 30 min, 12 ng/mL (plasma, TCEP 100 mg/ml, on ice): 103%
- recovery at 60 min, 12 ng/mL (plasma, TCEP 100 mg/ml, on ice): 101%
- recovery at 120 min, 12 ng/mL (plasma, TCEP 100 mg/ml, on ice): 98.3%
- recovery at 0 min, 12 ng/mL [6]: 102%
- recovery at 30 min, 12 ng/mL [6]: 102%
- recovery at 60 min, 12 ng/mL [6]: 99.2%
- recovery at 120 min, 12 ng/mL [6]: 96.7%
